Source: US20260217701A1, “SELECTIVE BET INHIBITORS AND USES THEREOF” (Tay Therapeutics Limited, priority 2022, published 2026)
Values joined by “and” are separate entries in the source; they are usually repeats but may differ in a detail not shown here. Equal values may be shown once.

System: collagen-induced arthritis
Assay: Collagen-induced arthritis (CIA) model: clinical scores and paw volume
Type: in vivo, Lewis rats
Conditions: for Percent Inhibition in clinical score (Mean ± SD) / Percent Inhibition in paw volume (Mean ± SD): CIA rats; for Overall Clinical Score: individual animals 1-8
[1] = Day 0, L paw, group 5 CIA + Compound A 1 mg/kg
[2] = Day 0, L paw, group 6 CIA + Compound A 3 mg/kg
[3] = Day 0, L paw, group 7 CIA + Compound A 10 mg/kg
[4] = Day 0, R paw, group 5 CIA + Compound A 1 mg/kg
[5] = Day 0, R paw, group 6 CIA + Compound A 3 mg/kg
[6] = Day 0, R paw, group 7 CIA + Compound A 10 mg/kg
[7] = Day 0, CIA + Compound A 1 mg/kg
[8] = Day 0, CIA + Compound A 3 mg/kg
[9] = Day 0, CIA + Compound A 10 mg/kg
[10] = Day 6, L paw, group 5 CIA + Compound A 1 mg/kg
[11] = Day 6, L paw, group 6 CIA + Compound A 3 mg/kg
[12] = Day 6, L paw, group 7 CIA + Compound A 10 mg/kg
[13] = Day 6, R paw, group 5 CIA + Compound A 1 mg/kg
[14] = Day 6, R paw, group 6 CIA + Compound A 3 mg/kg
[15] = Day 6, R paw, group 7 CIA + Compound A 10 mg/kg
[16] = Day 6, CIA + Compound A 1 mg/kg
[17] = Day 6, CIA + Compound A 3 mg/kg
[18] = Day 6, CIA + Compound A 10 mg/kg
[19] = Day 12, L paw, group 5 CIA + Compound A 1 mg/kg
[20] = Day 12, L paw, group 6 CIA + Compound A 3 mg/kg
[21] = Day 12, L paw, group 7 CIA + Compound A 10 mg/kg
[22] = Day 12, R paw, group 5 CIA + Compound A 1 mg/kg
[23] = Day 12, R paw, group 6 CIA + Compound A 3 mg/kg
[24] = Day 12, R paw, group 7 CIA + Compound A 10 mg/kg
[25] = Day 12, CIA + Compound A 1 mg/kg
[26] = Day 12, CIA + Compound A 3 mg/kg

Compound: Cn1cc(-c2ccccc2)c(-c2cn(C)c(=O)c3[nH]c(-c4cnn(C(F)(F)F)c4)cc23)cc1=O [Compound A, 6-methyl-4-(1-methyl-2-oxo-5-phenyl-1,2-dihydropyridin-4-yl)-2-(1-(trifluoromethyl)-1H-pyrazol-4-yl)-1,6-dihydro-7H-pyrrolo[2,3-c]pyridin-7-one]
- Reduction in clinical score compared to CIA+placebo (10 mg/kg PO QD, Day 21): > 70%
- Reduction in paw volume compared to CIA+placebo (10 mg/kg PO QD, Day 21): > 70%
- Anti-inflammatory activity versus CIA placebo and CIA+10 mg/kg GSK620 (1, 3, and 10 mg/kg): superior (statistically)
- Percent Inhibition in clinical score (Mean ± SD) (1 mg/kg): 60 ± 21%
- Percent Inhibition in paw volume (Mean ± SD) (1 mg/kg): 58 ± 23%
- Percent Inhibition in clinical score (Mean ± SD) (3 mg/kg): 70 ± 8%
- Percent Inhibition in paw volume (Mean ± SD) (3 mg/kg): 75 ± 12%
- Average animal paw volume [1]: 1.33 mL
- Average animal paw volume percent change (%) [1]: 0.00%
- Average animal paw volume [2]: 1.32 mL
- Average animal paw volume percent change (%) [2]: 0.00%
- Average animal paw volume [3]: 1.32 mL
- Average animal paw volume percent change (%) [3]: 0.00%
- Average animal paw volume [4]: 1.33 mL
- Average animal paw volume percent change (%) [4]: 0.00%
- Average animal paw volume [5]: 1.31 mL
- Average animal paw volume percent change (%) [5]: 0.00%
- Average animal paw volume [6]: 1.31 mL
- Average animal paw volume percent change (%) [6]: 0.00%
- Average detailed clinical score, left forelimb [7]: 0.00
- Average detailed clinical score, left hind limb [7]: 0.00
- Average detailed clinical score, right forelimb [7]: 0.00
- Average detailed clinical score, right hind limb [7]: 0.00
- Average detailed clinical score, score [7]: 0.00
- Average overall clinical score [7]: 0
- Overall Clinical Score [7]: 0
- Average detailed clinical score, left forelimb [8]: 0.00
- Average detailed clinical score, left hind limb [8]: 0.00
- Average detailed clinical score, right forelimb [8]: 0.00
- Average detailed clinical score, right hind limb [8]: 0.00
- Average detailed clinical score, score [8]: 0.00
- Average overall clinical score [8]: 0
- Overall Clinical Score [8]: 0
- Average detailed clinical score, left forelimb [9]: 0.00
- Average detailed clinical score, left hind limb [9]: 0.00
- Average detailed clinical score, right forelimb [9]: 0.00
- Average detailed clinical score, right hind limb [9]: 0.00
- Average detailed clinical score, score [9]: 0.00
- Average overall clinical score [9]: 0
- Average animal paw volume [10]: 1.35 mL
- Average animal paw volume percent change (%) [10]: 1.60%
- Average animal paw volume [11]: 1.34 mL
- Average animal paw volume percent change (%) [11]: 1.44%
- Average animal paw volume [12]: 1.34 mL
- Average animal paw volume percent change (%) [12]: 1.64%
- Average animal paw volume [13]: 1.35 mL
- Average animal paw volume percent change (%) [13]: 1.41%
- Average animal paw volume [14]: 1.34 mL
- Average animal paw volume percent change (%) [14]: 1.63%
- Average animal paw volume [15]: 1.33 mL
- Average animal paw volume percent change (%) [15]: 1.59%
- Average detailed clinical score, left forelimb [16]: 0.00
- Average detailed clinical score, left hind limb [16]: 0.00
- Average detailed clinical score, right forelimb [16]: 0.00
- Average detailed clinical score, right hind limb [16]: 0.00
- Average detailed clinical score, score [16]: 0.00
- Average overall clinical score [16]: 0
- Overall Clinical Score [16]: 0
- Average detailed clinical score, left forelimb [17]: 0.00
- Average detailed clinical score, left hind limb [17]: 0.00
- Average detailed clinical score, right forelimb [17]: 0.00
- Average detailed clinical score, right hind limb [17]: 0.00
- Average detailed clinical score, score [17]: 0.00
- Average overall clinical score [17]: 0
- Overall Clinical Score [17]: 0
- Average detailed clinical score, left forelimb [18]: 0.00
- Average detailed clinical score, left hind limb [18]: 0.00
- Average detailed clinical score, right forelimb [18]: 0.00
- Average detailed clinical score, right hind limb [18]: 0.00
- Average detailed clinical score, score [18]: 0.00
- Average overall clinical score [18]: 0
- Average animal paw volume [19]: 1.38 mL
- Average animal paw volume percent change (%) [19]: 4.24%
- Average animal paw volume [20]: 1.37 mL
- Average animal paw volume percent change (%) [20]: 4.35%
- Average animal paw volume [21]: 1.36 mL
- Average animal paw volume percent change (%) [21]: 3.32%
- Average animal paw volume [22]: 1.42 mL
- Average animal paw volume percent change (%) [22]: 6.44%
- Average animal paw volume [23]: 1.36 mL
- Average animal paw volume percent change (%) [23]: 3.50%
- Average animal paw volume [24]: 1.37 mL
- Average animal paw volume percent change (%) [24]: 4.40%
- Average detailed clinical score, left forelimb [25]: 0.00
- Average detailed clinical score, left hind limb [25]: 0.13
- Average detailed clinical score, right forelimb [25]: 0.25
- Average detailed clinical score, right hind limb [25]: 0.00
- Average detailed clinical score, score [25]: 0.38
- Average overall clinical score [25]: 0
- Overall Clinical Score (Day 12, CIA + Compound A 1 mg/kg, 1 mg/kg): 0 (7×) and 1
- Average detailed clinical score, left forelimb [26]: 0.00
- Average detailed clinical score, left hind limb [26]: 0.25
- Average detailed clinical score, right forelimb [26]: 0.00
- Average detailed clinical score, right hind limb [26]: 0.25
- Average detailed clinical score, score [26]: 0.50
- Average overall clinical score [26]: 0
- Overall Clinical Score (Day 12, CIA + Compound A 3 mg/kg, 3 mg/kg): 0
